# Measurements taken from PubChem BioAssay (NCI).
#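 Protocol summary: plate cells (96-well), add compound at 5 concentrations, incubate 48 h, interpolate endpoints linearly. At the TGI there is no net growth.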
# Tests used:
# Assay in all cases: NCI tumour cell line growth inhibition, 48 h
# HOP-62 NSCLC = tested on: HOP-62 NSCLC
# SK-MEL-2 melanoma = tested on: SK-MEL-2 melanoma
# SK-MEL-28 melanoma = tested on: SK-MEL-28 melanoma
# ACHN renal = tested on: ACHN renal
# OVCAR-5 ovarian = tested on: OVCAR-5 ovarian
# NCI-H23 lung = tested on: NCI-H23 lung
# SK-MEL-5 melanoma = tested on: SK-MEL-5 melanoma
# IGROV1 ovarian = tested on: IGROV1 ovarian
# HCT-15 colon = tested on: HCT-15 colon
# SF-295 CNS = tested on: SF-295 CNS
# EKVX NSCLC = tested on: EKVX NSCLC
# SR leukemia = tested on: SR leukemia
# SF-268 CNS = tested on: SF-268 CNS
# MDA-N = tested on: MDA-N
# SW-620 colon = tested on: SW-620 colon
# OVCAR-8 ovarian = tested on: OVCAR-8 ovarian
# NCI/ADR-RES ovarian = tested on: NCI/ADR-RES ovarian
# CAKI-1 renal = tested on: CAKI-1 renal
# A498 renal = tested on: A498 renal
# M14 melanoma = tested on: M14 melanoma
# PC-3 prostate = tested on: PC-3 prostate
# SNB-75 CNS = tested on: SNB-75 CNS
# NCI-H460 lung = tested on: NCI-H460 lung
# BT-549 breast = tested on: BT-549 breast
# NCI-H226 lung = tested on: NCI-H226 lung
# UACC-62 melanoma = tested on: UACC-62 melanoma
# TK-10 renal = tested on: TK-10 renal
# LOX IMVI melanoma = tested on: LOX IMVI melanoma
# MDA-MB-231 breast = tested on: MDA-MB-231 breast
# MCF7 breast = tested on: MCF7 breast
# COLO 205 colon = tested on: COLO 205 colon
# 786-0 renal = tested on: 786-0 renal
# HCT-116 colon = tested on: HCT-116 colon
# DU-145 prostate = tested on: DU-145 prostate
# HOP-92 NSCLC = tested on: HOP-92 NSCLC
# MDA-MB-435 = tested on: MDA-MB-435
# SN12C renal = tested on: SN12C renal
# HT29 colon = tested on: HT29 colon
# T-47D breast = tested on: T-47D breast
# A549 NSCLC = tested on: A549 NSCLC
# RXF 393 renal = tested on: RXF 393 renal
# HS 578T breast = tested on: HS 578T breast
# UACC-257 melanoma = tested on: UACC-257 melanoma
# SNB-19 CNS = tested on: SNB-19 CNS
# OVCAR-4 ovarian = tested on: OVCAR-4 ovarian
# NCI-H522 lung = tested on: NCI-H522 lung
# UO-31 renal = tested on: UO-31 renal
# MALME-3M melanoma = tested on: MALME-3M melanoma
# MOLT-4 leukemia = tested on: MOLT-4 leukemia
# HL-60(TB) leukemia = tested on: HL-60(TB) leukemia
# KM12 colon = tested on: KM12 colon
# U251 CNS = tested on: U251 CNS
# K-562 leukemia = tested on: K-562 leukemia
# SK-OV-3 ovarian = tested on: SK-OV-3 ovarian
# SF-539 CNS = tested on: SF-539 CNS
# OVCAR-3 ovarian = tested on: OVCAR-3 ovarian
# RPMI-8226 leukemia = tested on: RPMI-8226 leukemia
smiles,measurement,setting,value
OC(c1cc2ccccc2[nH]1)C1(c2cccnc2)SCCCS1 (stereo unspecified),TGI,HOP-62 NSCLC,> 100 µM
same,TGI,SK-MEL-2 melanoma,> 100 µM
same,TGI,SK-MEL-28 melanoma,> 100 µM
same,TGI,ACHN renal,> 100 µM
same,TGI,OVCAR-5 ovarian,> 100 µM
same,TGI,NCI-H23 lung,> 100 µM
same,TGI,SK-MEL-5 melanoma,> 100 µM
same,TGI,IGROV1 ovarian,> 100 µM
same,TGI,HCT-15 colon,> 100 µM
same,TGI,SF-295 CNS,> 100 µM
same,TGI,EKVX NSCLC,> 100 µM
same,TGI,SR leukemia,> 100 µM
same,TGI,SF-268 CNS,> 100 µM
same,TGI,MDA-N,> 100 µM
same,TGI,SW-620 colon,> 100 µM
same,TGI,OVCAR-8 ovarian,> 100 µM
same,TGI,NCI/ADR-RES ovarian,> 100 µM
same,TGI,CAKI-1 renal,> 100 µM
same,TGI,A498 renal,> 100 µM
same,TGI,M14 melanoma,> 100 µM
same,TGI,PC-3 prostate,> 100 µM
same,TGI,SNB-75 CNS,> 100 µM
same,TGI,NCI-H460 lung,> 100 µM
same,TGI,BT-549 breast,> 100 µM
same,TGI,NCI-H226 lung,> 100 µM
same,TGI,UACC-62 melanoma,> 100 µM
same,TGI,TK-10 renal,> 100 µM
same,TGI,LOX IMVI melanoma,> 100 µM
same,TGI,MDA-MB-231 breast,> 100 µM
same,TGI,MCF7 breast,> 100 µM
same,TGI,COLO 205 colon,> 100 µM
same,TGI,786-0 renal,> 100 µM
same,TGI,HCT-116 colon,> 100 µM
same,TGI,DU-145 prostate,> 100 µM
same,TGI,HOP-92 NSCLC,> 100 µM
same,TGI,MDA-MB-435,> 100 µM
same,TGI,SN12C renal,> 100 µM
same,TGI,HT29 colon,> 100 µM
same,TGI,T-47D breast,> 100 µM
same,TGI,A549 NSCLC,> 100 µM
same,TGI,RXF 393 renal,> 100 µM
same,TGI,HS 578T breast,> 100 µM
same,TGI,UACC-257 melanoma,> 100 µM
same,TGI,SNB-19 CNS,> 100 µM
same,TGI,OVCAR-4 ovarian,> 100 µM
same,TGI,NCI-H522 lung,> 100 µM
same,TGI,UO-31 renal,> 100 µM
same,TGI,MALME-3M melanoma,> 100 µM
same,TGI,MOLT-4 leukemia,> 100 µM
same,TGI,HL-60(TB) leukemia,> 100 µM
same,TGI,KM12 colon,82 µM
same,TGI,U251 CNS,> 100 µM
same,TGI,K-562 leukemia,> 100 µM
same,TGI,SK-OV-3 ovarian,> 100 µM
COC(=O)[C@@]1(Cc2ccc(O)cc2)C[C@@H]2Cc3ccccc3N2N1,TGI,HOP-62 NSCLC,> 100 µM
same,TGI,SK-MEL-2 melanoma,92.8 µM
same,TGI,SK-MEL-28 melanoma,> 100 µM
same,TGI,ACHN renal,> 100 µM
same,TGI,OVCAR-5 ovarian,> 100 µM
same,TGI,NCI-H23 lung,> 100 µM
same,TGI,SK-MEL-5 melanoma,> 100 µM
same,TGI,IGROV1 ovarian,> 100 µM
same,TGI,HCT-15 colon,> 100 µM
same,TGI,SF-295 CNS,> 100 µM
same,TGI,EKVX NSCLC,> 100 µM
same,TGI,SR leukemia,> 100 µM
same,TGI,SF-268 CNS,> 100 µM
same,TGI,MDA-N,> 100 µM
same,TGI,SW-620 colon,> 100 µM
same,TGI,SF-539 CNS,> 100 µM
same,TGI,OVCAR-8 ovarian,> 100 µM
same,TGI,NCI/ADR-RES ovarian,> 100 µM
same,TGI,CAKI-1 renal,> 100 µM
same,TGI,A498 renal,97.3 µM
same,TGI,M14 melanoma,> 100 µM
same,TGI,PC-3 prostate,> 100 µM
same,TGI,BT-549 breast,> 100 µM
same,TGI,NCI-H226 lung,> 100 µM
same,TGI,UACC-62 melanoma,> 100 µM
same,TGI,TK-10 renal,> 100 µM
same,TGI,OVCAR-3 ovarian,> 100 µM
same,TGI,LOX IMVI melanoma,> 100 µM
same,TGI,MDA-MB-231 breast,> 100 µM
same,TGI,MCF7 breast,> 100 µM
same,TGI,COLO 205 colon,> 100 µM
same,TGI,786-0 renal,> 100 µM
same,TGI,HCT-116 colon,> 100 µM
same,TGI,DU-145 prostate,> 100 µM
same,TGI,HOP-92 NSCLC,> 100 µM
same,TGI,RPMI-8226 leukemia,> 100 µM
same,TGI,MDA-MB-435,> 100 µM
same,TGI,SN12C renal,> 100 µM
same,TGI,HT29 colon,> 100 µM
same,TGI,T-47D breast,> 100 µM
same,TGI,A549 NSCLC,> 100 µM
same,TGI,HS 578T breast,> 100 µM
same,TGI,UACC-257 melanoma,71.7 µM
same,TGI,SNB-19 CNS,> 100 µM
same,TGI,OVCAR-4 ovarian,> 100 µM
same,TGI,NCI-H522 lung,> 100 µM
same,TGI,UO-31 renal,> 100 µM
same,TGI,MALME-3M melanoma,> 100 µM
same,TGI,MOLT-4 leukemia,> 100 µM
same,TGI,KM12 colon,> 100 µM
same,TGI,U251 CNS,> 100 µM
same,TGI,SK-OV-3 ovarian,> 100 µM
